In patent US8796298B2, “Combination of a B-Raf inhibitor: N-{3-[5-(2-Amino-4-pyrimidinyl)-2-(1,1- dimethylethyl)-1,3-thiazol-4-yl]-2-fluorophenyl}-2,6-difluorobenzenesulfonamide and the Akt inhibitor: N-{ (1S)-2-amino-1-[(3- fluorophenyl)methyl]ethyl}-5-chIoro-4-(4-chIoro- 1 -methyl- 1 H-pyrazol-5-yl)-2-10 …” (GlaxoSmithKline LLC, priority 2009, dated 2014):
Like-named read-outs stand apart in the source and are kept apart here.

What was measured:
RKO colon line = test: Cell growth inhibition assay (Cell Titer Glo), RKO; assay type: cell-based; conditions: Homo sapiens
Description: (§1) Human colon tumor lines, Colo205, DLD1, HCC2998, HCT15, HCT8, HT29, KM-12, LS1034, LS174T, RKO, SW1463, SW480, SW837 and T84, and human breast tumor cell lines EFM19 and MDA-MB-175VII were cultured in RPMI 1640 medium containing 10% fetal bovine serum (FBS).
(§2) All cells were cultured for a minimum of 72 hours prior to cell plating. Cells were assayed in a 96-well tissue culture plate (NUNC 136102) of RPMI medium containing 10% FBS for all cells at 1,000 cells per well. Approximately 24 hours after plating, cells were exposed to ten, three-fold serial dilutions of compound or the combination of the two agents at a constant molar to molar ratio of 1:10 Compound A to Compound B in RPMI media containing 10% FBS. Cells were incubated in the presence of compounds for 3 days. ATP levels were determined by adding Cell Titer Glo® (Promega) according to the manufacturer's protocol. Briefly, Cell Titer Glo® was added each plate, incubated for 30 minutes then luminescent signal was read on the SpectraMax L plate reader with a 0.5 sec integration time.
(§3) Inhibition of cell growth was estimated after treatment with compound or combination of compounds for three days and comparing the signal to cells treated with vehicle (DMSO). Cell growth was calculated relative to vehicle (DMSO) treated control wells.
In general, a CI value <0.9, between 0.9 and 1.1, or >1.1 indicates synergy, additivity and antagonism, respectively. In general, the smaller the CI number, the greater is the strength of synergy.
(§4) The combination effects on the response scale were quantified by Excess Over Highest Single Agent (EOHSA) based on the concept of nonlinear blending as described in detail by Peterson and Novick (2007) and Peterson (2010) [(2;3) [Peterson and Novick, 2007; Peterson, 2010]. EOHSA values are defined as increases in improvement (here, in ‘percentage points’ (ppts) difference) produced by the combination over the best single agent at its component dose level for the combination. For single agent and combination treatments, cells were exposed to compounds at a fixed-dose-ratio, and dose response curves were fit to the experimental data and analyzed using regression models. At specified total dose levels of IC50 along the dose response curve, the dose combination (corresponding to IC50) was determined for making EOHSA statistical inferences.

HT29 = test: Cell growth inhibition assay (Cell Titer Glo), HT29; assay type: cell-based, Human
Description: as §1
(§5) All cells were cultured for a minimum of 72 hours prior to cell plating. Cells were assayed in a 96-well tissue culture plate (NUNC 136102) of RPMI medium containing 10% FBS for all cells at 1,000 cells per well. […] ATP levels were determined by adding Cell Titer Glo® (Promega) according to the manufacturer's protocol. Briefly, Cell Titer Glo® was added each plate, incubated for 30 minutes then luminescent signal was read on the SpectraMax L plate reader with a 0.5 sec integration time.
(§6) Inhibition of cell growth was estimated after treatment with compound or combination of compounds for three days and comparing the signal to cells treated with vehicle (DMSO). Cell growth was calculated relative to vehicle (DMSO) treated control wells. […]
(§7) The combination effects on the response scale were quantified by Excess Over Highest Single Agent (EOHSA) based on the concept of nonlinear blending as described in detail by Peterson and Novick (2007) and Peterson (2010) [(2;3) [Peterson and Novick, 2007; Peterson, 2010]. […]

Colo205 = test: Cell growth inhibition assay (Cell Titer Glo), Colo205; assay type: cell-based, Human; conditions: for IC50: Homo sapiens, COLO 205, 72 h, Colo205 colon, BRAF V600E, KRAS WT, PIK3CA WT, 3 days, mean ± std, read-out: IC50 values, Single Agent
Description: as §1, §2, §3
(§8) In general, a CI value <0.9, between 0.9 and 1.1, or >1.1 indicates synergy, additivity and antagonism, respectively. […]
as §4, with “EOHSA values are defined as increases in improvement (here, in ‘percentage points’ (ppts) difference) produced by the combination over the best single agent at its component dose level for the combination.” left out

DLD1 = test: Cell growth inhibition assay (Cell Titer Glo), DLD1; assay type: cell-based; conditions: Homo sapiens, DLD-1, 72 h; DLD1 colon; BRAF WT, KRAS G13D, PIK3CA E545K, D549N; 3 days; read-out: IC50 values, Single Agent
Description: as §1, §5, §6, §7

HCC2998 = test: Cell growth inhibition assay (Cell Titer Glo), HCC2998; assay type: cell-based; conditions: Homo sapiens, HCC 2998, 72 h; HCC2998 colon; BRAF WT, KRAS A146T, PIK3CA WT; 3 days; read-out: IC50 values, Single Agent
Description: as §1, §5, §6, §7

HCT15 = test: Cell growth inhibition assay (Cell Titer Glo), HCT15; assay type: cell-based; conditions: Homo sapiens, HCT-15, 72 h; HCT15 colon; BRAF WT, KRAS G13D, PIK3CA D549N, E545K; 3 days; mean ± std; read-out: IC50 values, Single Agent
Description: as §1, §5, §6, §7

HCT8 = test: Cell growth inhibition assay (Cell Titer Glo), HCT8; assay type: cell-based; conditions: Homo sapiens, HCT-8, 72 h; HCT8 colon; BRAF WT, KRAS G13D, PIK3CA E545K; 3 days; mean ± std; read-out: IC50 values, Single Agent
Description: as §1, §5, §6, §7

KM-12 = test: Cell growth inhibition assay (Cell Titer Glo), KM-12; assay type: cell-based; conditions: Homo sapiens, KM12, 72 h; KM-12 colon; BRAF WT, KRAS WT, PIK3CA WT; 3 days; mean ± std; read-out: IC50 values, Single Agent
Description: as §1, §5, §6, §7

LS1034 = test: Cell growth inhibition assay (Cell Titer Glo), LS1034; assay type: cell-based; conditions: Homo sapiens, LS-1034, 72 h; LS1034 colon; BRAF WT, KRAS A146T, PIK3CA WT; 3 days; read-out: IC50 values, Single Agent
Description: as §1, §5, §6, §7

SW480 = test: Cell growth inhibition assay (Cell Titer Glo), SW480; assay type: cell-based; conditions: Homo sapiens, 72 h; SW480 colon; BRAF WT, KRAS G12C, PIK3CA WT; 3 days; mean ± std; read-out: IC50 values, Single Agent
Description: as §1, §5, §6, §7

SW1463 = test: Cell growth inhibition assay (Cell Titer Glo), SW1463; assay type: cell-based; conditions: Homo sapiens, 72 h; SW1463 colon; BRAF WT, KRAS G12C, PIK3CA WT; 3 days; read-out: IC50 values, Single Agent
Description: as §1, §5, §6, §7

SW837 = test: Cell growth inhibition assay (Cell Titer Glo), SW837; assay type: cell-based; conditions: Homo sapiens, 72 h; SW837 colon; BRAF WT, KRAS G12C, PIK3CA WT; 3 days; read-out: IC50 values, Single Agent
Description: as §1, §5, §6, §7

T84 = test: Cell growth inhibition assay (Cell Titer Glo), T84; assay type: cell-based; conditions: Homo sapiens, 72 h; T84 colon; BRAF WT, KRAS G13D, PIK3CA E542K; 3 days; read-out: IC50 values, Single Agent
Description: as §1, §5, §6, §7

EFM19 = test: Cell growth inhibition assay (Cell Titer Glo), EFM19; assay type: cell-based; conditions: Homo sapiens, EFM-19, 72 h; EFM19 breast; BRAF WT, KRAS WT, PIK3CA WT; 3 days; mean ± std; read-out: IC50 values, Single Agent
Description: as §1, §5, §6, §7

MDA-MB-175VII = test: Cell growth inhibition assay (Cell Titer Glo), MDA-MB-175VII; assay type: cell-based; conditions: Homo sapiens, 72 h; MDA-MB-175VII breast; BRAF WT, KRAS WT, PIK3CA H1049L; 3 days; mean ± std; read-out: IC50 values, Single Agent
Description: as §1, §5, §6, §7

[1] = test system: 10 colon lines without BRAF V600E mutation; test: Cell growth inhibition assay (Cell Titer Glo), colon lines without BRAF V600E mutation; assay type: cell-based; conditions: Homo sapiens; the other 10 colon lines without BRAF V600E mutation (KRAS wild type or mutated); read-out: IC50s, compound alone
Description: All cells were cultured for a minimum of 72 hours prior to cell plating. […] Cells were incubated in the presence of compounds for 3 days. ATP levels were determined by adding Cell Titer Glo® (Promega) according to the manufacturer's protocol. Briefly, Cell Titer Glo® was added each plate, incubated for 30 minutes then luminescent signal was read on the SpectraMax L plate reader with a 0.5 sec integration time.
as §3, §8
as §4, with “EOHSA” for “The combination effects on the response scale were quantified by Excess Over Highest Single Agent (EOHSA) based on the concept of nonlinear blending as described in detail by Peterson and Novick (2007) and Peterson (2010) [(2;3) [Peterson and Novick, 2007; Peterson, 2010]. EOHSA”

[2] = 72 h, RKO colon, BRAF V600E, KRAS WT, PIK3CA H1047R, 3 days, mean ± std, read-out: IC50 values, Single Agent
[3] = RKO colon line, BRAF V600E and PIK3CA H1047R, single agent, read-out: IC50, compound alone

CC(C)(C)c1nc(-c2cccc(NS(=O)(=O)c3c(F)cccc3F)c2F)c(-c2ccnc(N)n2)s1 [Compound A, N-{3-[5-(2-Amino-4-pyrimidinyl)-2-(1,1-dimethylethyl)-1,3-thiazol-4-yl]-2-fluorophenyl}-2,6-difluorobenzenesulfonamide]
IC50 (RKO colon line; [2]): 4.2 ± 4.03 µM
IC50 (RKO colon line; [3]): > 1 µM
sensitivity to compound alone in words (HT29; HT29, BRAF V600E mutation line): highly sensitive
sensitivity to compound alone in words (Colo205; Colo205, BRAF V600E mutation line): highly sensitive
IC50 (Colo205): 0.013 ± 0.004 µM
IC50 (DLD1): > 10 µM
IC50 (HCC2998): > 10 µM
IC50 (HCT15): > 10 µM
IC50 (HCT8): > 10 µM
IC50 (KM-12): > 10 µM
IC50 (LS1034): > 10 µM
IC50 (SW480): > 10 µM
IC50 (SW1463): > 10 µM
IC50 (SW837): > 10 µM
IC50 (T84): > 10 µM
IC50 (EFM19): > 10 µM
IC50 (MDA-MB-175VII): > 10 µM
IC50 [1]: > 10 µM

Cn1ncc(Cl)c1-c1cc(C(=O)N[C@H](CN)Cc2cccc(F)c2)sc1Cl [Compound B, N-{(1S)-2-amino-1-[(3-fluorophenyl)methyl]ethyl}-5-chloro-4-(4-chloro-1-methyl-1H-pyrazol-5-yl)-2-thiophenecarboxamide]
IC50 (RKO colon line; [2]): 1.35 ± 0.614 µM
IC50 (RKO colon line; [3]): > 1 µM
IC50 (HT29; Homo sapiens, HT-29, 72 h, HT29 colon, BRAF V600E, KRAS WT, PIK3CA P449T, 3 days, mean ± std, read-out: IC50 values, Single Agent): 1.43 ± 0.073 µM
IC50 (Colo205): 3.29 ± 0.242 µM
IC50 (DLD1): > 10 µM
IC50 (HCC2998): > 10 µM
IC50 (HCT15): 7.77 ± 1.69 µM
IC50 (HCT8): 1.55 ± 0.051 µM
IC50 (KM-12): 4.45 ± 4.2 µM
IC50 (LS1034): > 10 µM
IC50 (SW480): 6.08 ± 0.154 µM
IC50 (SW1463): > 10 µM
IC50 (SW837): > 10 µM
IC50 (T84): > 10 µM
IC50 (EFM19): 0.444 ± 0.285 µM
IC50 (MDA-MB-175VII): 0.844 ± 0.033 µM
